Test: Concentration of lactic acid fermentation culture medium with reverse osmosis membrane at 50° C. until calcium lactate precipitates
Settings: no calcium formate added
Description: While the recovered concentrate was incubated at 50° C., the concentrate was filtered by suction filtration through Qualitative Filter Paper No. 2 (manufactured by [sequence]) to remove the precipitated calcium lactate crystals.

## CC(O)C(=O)[O-].CC(O)C(=O)[O-].[Ca+2] (stereo not drawn) [calcium lactate]
D-lactic acid fermentation medium (SL strain)
  concentration of calcium lactate at which precipitation was found: 12.5 % by weight
L-lactic acid fermentation medium (LC strain)
  concentration of calcium lactate at which precipitation was found: 12.8 % by weight
L-lactic acid fermentation medium (yeast HI003 strain)
  concentration of calcium lactate at which precipitation was found: 12.0 % by weight
